Holding throughout (test): microbe, parasite or virus in culture
Common to all, as to format: cell-based

Assay [1] deals with M. tuberculosis strain 1348.
Assay [2] deals with M. tuberculosis strain 1356.
Assay [3] relates to M. tuberculosis strain 1369.
The subject of assay [4] is M. tuberculosis strain 1371.
The mark [5] stands for this setting: Mycobacterium tuberculosis, 1348.
The mark [6] stands for this setting: Mycobacterium tuberculosis, 1356.
[7] abbreviates: Mycobacterium tuberculosis, 1369.
The mark [8] stands for this setting: Mycobacterium tuberculosis, 1371.

Converted amounts (≈) assume the structure as drawn. Like-named read-outs stand apart in the source and are kept apart here.

With (+)-Calanolide A [(+)-Calanolide A (1)], the MIC in assay [1] (strain 1348), in assay [2] (strain 1356), in assay [3] (strain 1369) and in assay [4] (strain 1371) was 8 µg/mL each time. Besides, the fold resistance in assay [1] (strain 1348), in assay [2] (strain 1356), in assay [3] (strain 1369) and in assay [4] (strain 1371) was 1 fold throughout.

Take `CO[C@H]1/C=C/O[C@@]2(C)Oc3c(C)c(O)c4c(O)c(c(/C=N/N5CCN(C)CC5)c(O)c4c3C2=O)NC(=O)/C(C)=C\C=C\[C@H](C)[C@H](O)[C@@H](C)[C@@H](O)[C@@H](C)[C@H](OC(C)=O)[C@@H]1C` [Rifampin]: the fold resistance in assay [1] is on record as 0.031 (2) fold; in assay [2], 0.031 (2) fold; in assay [3], 64 (4,000) fold; in assay [4], 0.016 (1) fold. Besides, the MIC in assay [1] (setting [5]) amounted to 0.031 µg/mL (≈ 0.0377 µM); in assay [2] (setting [6]), 0.031 µg/mL (≈ 0.0377 µM); in assay [3] (setting [7]) it was 64 µg/mL (≈ 77.8 µM); in assay [4] (setting [8]) it was 0.016 µg/mL (≈ 0.0194 µM).

For the molecule `CC[C@@H](CO)NCCN[C@@H](CC)CO` [Ethambutol], the MIC in assay [1] (setting [5]) is 8 µg/mL (≈ 39.2 µM); in assay [2] (setting [6]), 64 µg/mL (≈ 313 µM); in assay [3] (setting [7]), 2 µg/mL (≈ 9.79 µM); in assay [4] (setting [8]), 2 µg/mL (≈ 9.79 µM). Further, the fold resistance in assay [1] (strain 1348) was determined as 4 fold; in assay [2] (strain 1356), 32 fold; in assay [3] (strain 1369), 1 fold; in assay [4] (strain 1371), 1 fold.

Take `NNC(=O)c1ccncc1` [Isoniazid]: the fold resistance in assay [1] is >128 (>4100) fold; in assay [2], 0.25 (8) fold; in assay [3] it was 0.031 (1) fold; in assay [4], 0.031 (1) fold. The MIC in assay [1] (setting [5]) is more than 128 µg/mL; in assay [2] (setting [6]) it was 0.25 µg/mL (≈ 1.82 µM); in assay [3] (setting [7]), 0.031 µg/mL (≈ 0.226 µM); in assay [4] (setting [8]) it was 0.031 µg/mL (≈ 0.226 µM).

As to `[H]/N=C(/N)N[C@H]1[C@H](O)[C@@H](O)[C@H](O[C@@H]2O[C@@H](C)[C@](O)(C=O)[C@H]2O[C@@H]2O[C@@H](CO)[C@H](O)[C@@H](O)[C@@H]2NC)[C@@H](N/C(N)=N\[H])[C@@H]1O` [Streptomycin], the MIC is 0.25 µg/mL (≈ 0.43 µM) in assay [1] (setting [5]), 0.25 µg/mL (≈ 0.43 µM) in assay [2] (setting [6]), 0.25 µg/mL (≈ 0.43 µM) in assay [3] (setting [7]) and more than 128 µg/mL in assay [4] (setting [8]). In addition, the fold resistance was 1 fold in assay [1] (strain 1348), 1 fold in assay [2] (strain 1356), 1 fold in assay [3] (strain 1369) and “(>512) fold” in assay [4] (strain 1371).
